The values that follow come from the OligoGym collection.

HELM strings list units from the 5' end as sugar, base in round brackets, then linkage (d deoxyribose, r ribose, m 2'-O-methyl, p phosphodiester). Strings are as the collection lists them; they lack the last nucleoside at the 3' end of the tested compound. [moe] = 2'-O-(2-methoxyethyl) (MOE); [sp] = phosphorothioate linkage; [m5C] = 5-methylcytosine

This data set deals with LRRK2. The data set is described as follows: mouse, dose not given. The settings on record: ASO.
Substance “RNA1{[moe](T)[sp].[moe](T)p.[moe]([m5C])p.[moe](A)p.[moe](G)[sp].d(T)[sp].d(T)[sp].d([m5C])[sp].d([m5C])[sp].d(T)[sp].d(T)[sp].d([m5C])[sp].d(A)[sp].d(G)[sp].d(T)[sp].[moe]([m5C])p.[moe](T)p.[moe]([m5C])[sp].[moe](A)}$$$$ (last 3' nucleoside missing)” yielded a 3 h FOB score of 4 score 0-7.

As to “RNA1{[moe]([m5C])[sp].[moe](T)p.[moe](T)[sp].[moe]([m5C])[sp].[moe](A)[sp].d(G)[sp].d(T)[sp].d(T)[sp].d([m5C])[sp].d([m5C])[sp].d(T)[sp].d(T)[sp].d([m5C])[sp].d(A)[sp].d(G)[sp].[moe](T)[sp].[moe]([m5C])p.[moe](T)[sp].[moe]([m5C])}$$$$ (last 3' nucleoside missing)”, the 3 h FOB score worked out at 6 score 0-7.

On to “RNA1{[moe](T)[sp].[moe](A)p.[moe](A)[sp].[moe]([m5C])[sp].[moe](G)[sp].d([m5C])[sp].d(A)[sp].d([m5C])[sp].d(T)[sp].d(T)[sp].d(A)[sp].d(A)[sp].d([m5C])[sp].d(A)[sp].d(A)[sp].[moe](T)[sp].[moe](A)p.[moe](T)[sp].[moe]([m5C])}$$$$ (last 3' nucleoside missing)”, for which the 3 h FOB score turned out to be 2 score 0-7.

With “RNA1{[moe]([m5C])[sp].[moe]([m5C])p.[moe](A)p.[moe](T)p.[moe](A)[sp].d(T)[sp].d(T)[sp].d(T)[sp].d(A)[sp].d(G)[sp].d([m5C])[sp].d(T)[sp].d(T)[sp].d(A)[sp].d(T)[sp].[moe](G)p.[moe](A)p.[moe](T)[sp].[moe](G)}$$$$ (last 3' nucleoside missing)”, the 3 h FOB score came to 7 score 0-7.

“RNA1{[moe]([m5C])[sp].[moe](G)p.[moe]([m5C])[sp].[moe](A)[sp].[moe]([m5C])[sp].d(T)[sp].d(T)[sp].d(A)[sp].d(A)[sp].d([m5C])[sp].d(A)[sp].d(A)[sp].d(T)[sp].d(A)[sp].d(T)[sp].[moe]([m5C])[sp].[moe](A)p.[moe](T)[sp].[moe](A)}$$$$ (last 3' nucleoside missing)” yielded a 3 h FOB score of 1 score 0-7.

Take “RNA1{[moe](G)[sp].[moe](A)p.[moe](A)[sp].[moe](A)[sp].[moe](T)[sp].d(G)[sp].d(A)[sp].d(G)[sp].d(T)[sp].d(G)[sp].d([m5C])[sp].d(A)[sp].d(T)[sp].d(G)[sp].d(G)[sp].[moe]([m5C])[sp].[moe](A)p.[moe](T)[sp].[moe]([m5C])}$$$$ (last 3' nucleoside missing)”: the 3 h FOB score was 7 score 0-7.

Take “RNA1{[moe](G)[sp].[moe](A)p.[moe](G)[sp].[moe](T)[sp].[moe](G)[sp].d([m5C])[sp].d(A)[sp].d(T)[sp].d(G)[sp].d(G)[sp].d([m5C])[sp].d(A)[sp].d(T)[sp].d([m5C])[sp].d(A)[sp].[moe](A)[sp].[moe](A)p.[moe](A)[sp].[moe](A)}$$$$ (last 3' nucleoside missing)”: the 3 h FOB score is 2 score 0-7.

Regarding “RNA1{[moe]([m5C])[sp].[moe](T)p.[moe](T)[sp].[moe](T)[sp].[moe]([m5C])[sp].d(A)[sp].d(T)[sp].d(A)[sp].d(G)[sp].d([m5C])[sp].d(T)[sp].d(T)[sp].d([m5C])[sp].d([m5C])[sp].d(A)[sp].[moe]([m5C])[sp].[moe]([m5C])p.[moe](A)[sp].[moe]([m5C])}$$$$ (last 3' nucleoside missing)”, the 3 h FOB score was determined as 3 score 0-7.

Take “RNA1{[moe](A)[sp].[moe](G)[sp].[moe](T)[sp].[moe](T)[sp].[moe]([m5C])[sp].d([m5C])[sp].d(T)[sp].d(T)[sp].d([m5C])[sp].d(A)[sp].d(G)[sp].d(T)[sp].d([m5C])[sp].d(T)[sp].d([m5C])[sp].[moe](A)[sp].[moe](A)p.[moe](G)[sp].[moe](G)}$$$$ (last 3' nucleoside missing)”: the 3 h FOB score was determined as 7 score 0-7.

As for “RNA1{[moe]([m5C])[sp].[moe](G)p.[moe]([m5C])p.[moe](A)p.[moe]([m5C])[sp].d(T)[sp].d(T)[sp].d(A)[sp].d(A)[sp].d([m5C])[sp].d(A)[sp].d(A)[sp].d(T)[sp].d(A)[sp].d(T)[sp].[moe]([m5C])p.[moe](A)p.[moe](T)[sp].[moe](A)}$$$$ (last 3' nucleoside missing)”, the 3 h FOB score amounted to 0 score 0-7.

Regarding “RNA1{[moe](T)[sp].[moe](G)p.[moe]([m5C])p.[moe](T)p.[moe](G)[sp].d([m5C])[sp].d(T)[sp].d([m5C])[sp].d(A)[sp].d(T)[sp].d(A)[sp].d(T)[sp].d([m5C])[sp].d(T)[sp].d(A)[sp].[moe](A)p.[moe](A)p.[moe](G)[sp].[moe](A)}$$$$ (last 3' nucleoside missing)”, the 3 h FOB score stood at 0 score 0-7.

As for “RNA1{[moe](G)[sp].[moe](T)p.[moe](G)[sp].[moe]([m5C])[sp].[moe](A)[sp].d(A)[sp].d(G)[sp].d(T)[sp].d([m5C])[sp].d([m5C])[sp].d(A)[sp].d(A)[sp].d(A)[sp].d(T)[sp].d(G)[sp].[moe](T)[sp].[moe](G)p.[moe](T)[sp].[moe]([m5C])}$$$$ (last 3' nucleoside missing)”, the 3 h FOB score was 4 score 0-7.

“RNA1{[moe](A)[sp].[moe]([m5C])p.[moe](G)p.[moe]([m5C])p.[moe](A)[sp].d([m5C])[sp].d(T)[sp].d(T)[sp].d(A)[sp].d(A)[sp].d([m5C])[sp].d(A)[sp].d(A)[sp].d(T)[sp].d(A)[sp].[moe](T)p.[moe]([m5C])p.[moe](A)[sp].[moe](T)}$$$$ (last 3' nucleoside missing)” gave a 3 h FOB score of 0 score 0-7.

“RNA1{[moe](A)[sp].[moe](T)p.[moe](T)p.[moe](G)p.[moe]([m5C])[sp].d(A)[sp].d(A)[sp].d(T)[sp].d(G)[sp].d(T)[sp].d(T)[sp].d(T)[sp].d([m5C])[sp].d(A)[sp].d(A)[sp].[moe](T)p.[moe](A)p.[moe](T)[sp].[moe](G)}$$$$ (last 3' nucleoside missing)” yielded a 3 h FOB score of 1 score 0-7.

On to “RNA1{[moe]([m5C])[sp].[moe](A)p.[moe](T)p.[moe](A)p.[moe](A)[sp].d(G)[sp].d(T)[sp].d(T)[sp].d(T)[sp].d([m5C])[sp].d(A)[sp].d(T)[sp].d(T)[sp].d([m5C])[sp].d(G)[sp].[moe](G)p.[moe](T)p.[moe](T)[sp].[moe](A)}$$$$ (last 3' nucleoside missing)”, for which the 3 h FOB score is 5 score 0-7.

“RNA1{[moe](G)[sp].[moe]([m5C])p.[moe](T)p.[moe](T)p.[moe](T)[sp].d([m5C])[sp].d(A)[sp].d(T)[sp].d(A)[sp].d(G)[sp].d([m5C])[sp].d(T)[sp].d(T)[sp].d([m5C])[sp].d([m5C])[sp].[moe](A)p.[moe]([m5C])p.[moe]([m5C])[sp].[moe](A)}$$$$ (last 3' nucleoside missing)” had a 3 h FOB score of 0 score 0-7.

The substance “RNA1{[moe](A)[sp].[moe](G)p.[moe](T)[sp].[moe](T)[sp].[moe]([m5C])[sp].d([m5C])[sp].d(T)[sp].d(T)[sp].d([m5C])[sp].d(A)[sp].d(G)[sp].d(T)[sp].d([m5C])[sp].d(T)[sp].d([m5C])[sp].[moe](A)p.[moe](A)p.[moe](G)[sp].[moe](G)}$$$$ (last 3' nucleoside missing)” had a 3 h FOB score of 7 score 0-7.

As for “RNA1{[moe](T)[sp].[moe]([m5C])p.[moe](A)[sp].[moe](T)[sp].[moe](T)[sp].d([m5C])[sp].d(G)[sp].d(G)[sp].d(T)[sp].d(T)[sp].d(A)[sp].d(T)[sp].d(A)[sp].d(A)[sp].d(G)[sp].[moe](G)[sp].[moe]([m5C])p.[moe](A)[sp].[moe]([m5C])}$$$$ (last 3' nucleoside missing)”, the 3 h FOB score came to 7 score 0-7.

As for “RNA1{[moe](G)[sp].[moe](T)p.[moe](A)p.[moe]([m5C])p.[moe]([m5C])[sp].d([m5C])[sp].d(T)[sp].d(T)[sp].d(T)[sp].d([m5C])[sp].d([m5C])[sp].d(A)[sp].d(T)[sp].d(G)[sp].d(T)[sp].[moe](G)p.[moe](A)p.[moe](A)[sp].[moe]([m5C])}$$$$ (last 3' nucleoside missing)”, the 3 h FOB score was determined as 1 score 0-7.

For “RNA1{[moe](G)[sp].[moe](T)p.[moe]([m5C])p.[moe](A)p.[moe]([m5C])[sp].d([m5C])[sp].d(T)[sp].d(T)[sp].d(T)[sp].d([m5C])[sp].d([m5C])[sp].d([m5C])[sp].d(A)[sp].d(A)[sp].d(T)[sp].[moe](G)p.[moe]([m5C])p.[moe](T)[sp].[moe](T)}$$$$ (last 3' nucleoside missing)”, the 3 h FOB score is 0 score 0-7.

Take “RNA1{[moe](A)[sp].[moe](G)p.[moe](T)p.[moe](T)p.[moe](T)[sp].d([m5C])[sp].d(A)[sp].d(T)[sp].d(T)[sp].d([m5C])[sp].d(G)[sp].d(G)[sp].d(T)[sp].d(T)[sp].d(A)[sp].[moe](T)p.[moe](A)p.[moe](A)[sp].[moe](G)}$$$$ (last 3' nucleoside missing)”: the 3 h FOB score worked out at 7 score 0-7.

The substance “RNA1{[moe](T)[sp].[moe](T)p.[moe]([m5C])p.[moe](A)p.[moe](T)[sp].d(T)[sp].d([m5C])[sp].d(G)[sp].d(G)[sp].d(T)[sp].d(T)[sp].d(A)[sp].d(T)[sp].d(A)[sp].d(A)[sp].[moe](G)p.[moe](G)p.[moe]([m5C])[sp].[moe](A)}$$$$ (last 3' nucleoside missing)” showed a 3 h FOB score of 4 score 0-7.

“RNA1{[moe](T)[sp].[moe]([m5C])p.[moe](A)p.[moe](G)p.[moe](T)[sp].d(T)[sp].d([m5C])[sp].d([m5C])[sp].d(T)[sp].d(T)[sp].d([m5C])[sp].d(A)[sp].d(G)[sp].d(T)[sp].d([m5C])[sp].[moe](T)p.[moe]([m5C])p.[moe](A)[sp].[moe](A)}$$$$ (last 3' nucleoside missing)”: the 3 h FOB score was 4 score 0-7.

For the substance “RNA1{[moe](G)[sp].[moe]([m5C])p.[moe]([m5C])p.[moe]([m5C])p.[moe](A)[sp].d(G)[sp].d([m5C])[sp].d([m5C])[sp].d(A)[sp].d(A)[sp].d(A)[sp].d(T)[sp].d(G)[sp].d([m5C])[sp].d(T)[sp].[moe](T)p.[moe](G)p.[moe]([m5C])[sp].[moe](A)}$$$$ (last 3' nucleoside missing)”, the 3 h FOB score was determined as 0 score 0-7.
